# Experiments:
# [1] = tested on: syngeneic 4T1-HER2 tumors; experiment: In-vivo X-PACT trial on syngeneic tumors (FIG. 6); set-up: species or system BALB/c mice; settings: psoralen (AMT) alone with x-ray, phosphors alone with x-ray; relative to in-vitro expectation
# Method: There were 6-8 mice per arm, and the study was repeated a second time, yielding effective sample sizes of 12-16. […] In the separate psoralen and phosphor control arms (blue and red respectively), 5 μM psoralen (AMT) and 100 μg of phosphor where applied. A consistent x-ray irradiation technique was used for all arms (except saline control) which was 2 Gy delivered at 75 kVp by 30 mA in 3 minutes.
# [2] = tested on: CT2A (murine malignant glioma); experiment: UV light activated psoralen, Cell-Titer-Glo Luminescence Cell Viability Assay (FIG. 3A); format: cell-based; settings: psoralen 40 μM; UV light 0, 0.25, 0.5, 1.0 J/cm^2
# Method: (§1) Metabolic cell viability was also assessed visually using Methylene blue staining and ATP-induced Luminescence imaging (Cell-Titer-Glo® Luminescence Cell Viability Assay). The luminescence imaging permitted investigation of the cytotoxicity of psoralen activated directly with a UV lamp, and in the absence of phosphors and x-ray radiation. […] N=4 for each cell line at each UV light condition (0, 0.25, 0.5, 1.0 J/cm^2). The psoralen concentration was 40 μM.
# [3] = tested on: 4T1; experiment: as above; format: cell-based, murine; settings: psoralen 40 μM; UV light 0, 0.25, 0.5, 1.0 J/cm^2
# Method: as §1
# [4] = tested on: KP158B (sarcoma); experiment: as above; format: cell-based, murine; settings: psoralen 40 μM; UV light 0, 0.25, 0.5, 1.0 J/cm^2
# Method: as §1
# [5] = tested on: 4T1-HER2 cells; settings: multi-variable regression on 36 independent irradiation experiments
# Method: Guava Annexin V flow cell cytometry was used to quantify cytotoxicity in 3 murine tumor cell lines (breast-4T1, glioma-CT2A, and sarcoma KP15B8). […] Cells were incubated in appropriate growing media and buffers before being trypsinized and plated evenly onto twelve (12) well plates for 24 hours. […] The plates were then irradiated with x-rays by placing the plate at a known distance from the x-ray source (e.g., 50 cm). After irradiation the cells were incubated on the plate for 48 hours prior to performing flow cytometry. For compatibility with 96-well Guava Nexin® assay, the remaining cells were again trypsinized (after the 48 hour incubation) and plated onto a 96-well plate. […]
# Cells plated in 12-well plates, where individual wells in each plate may receive different experimental conditions (e.g. psoralen concentration), but the same x-ray dose (i.e. all wells in a given plate receive the same x-ray dose). The first metric is metabolically viable cell count (or cell viability) determined from the number of whole cells per well as determined using forward scattering (FSC). […] (All wells on a given plate receive the same dose.) The second metric is Annexin V (+) signal, which is the fraction of the metabolically viable cells which expressed a positive Annexin V signal as determined by flow cell cytometry, and include any cells advancing toward early or late apoptotic cell death. […]
compound,measurement,setting,value
O=c1ccc2cc3ccoc3cc2o1 [psoralen],component effect in control arms,[1],slightly higher component effect
same,effect of UV light activated psoralen on viable cells,[2],reduce viable cells
same,effect of UV light activated psoralen on viable cells,[3],reduce viable cells
same,effect of UV light activated psoralen on viable cells,[4],reduce viable cells
same,effect on cytotoxicity (Annexin V signal) of component alone,[5],neither psoralen nor phosphor alone had a strong effect on cytotoxicity
